The text below walks through data of patent US8466157B2, “Proteasome inhibitors having chymotrypsin-like activity” (University of South Florida, priority 2009, dated 2013).

Values joined by “and” are separate entries in the source; they are usually repeats but may differ in a detail not shown here. Identical values can stand only once. Like-named read-outs stand apart in the source and are kept apart here.

This assay concerns the target T1, chymotrypsin-like activity of the purified rabbit 20S proteasome (Oryctolagus cuniculus, UniProt G1T4Q9).
T1 sequence (G1T4Q9 1-263): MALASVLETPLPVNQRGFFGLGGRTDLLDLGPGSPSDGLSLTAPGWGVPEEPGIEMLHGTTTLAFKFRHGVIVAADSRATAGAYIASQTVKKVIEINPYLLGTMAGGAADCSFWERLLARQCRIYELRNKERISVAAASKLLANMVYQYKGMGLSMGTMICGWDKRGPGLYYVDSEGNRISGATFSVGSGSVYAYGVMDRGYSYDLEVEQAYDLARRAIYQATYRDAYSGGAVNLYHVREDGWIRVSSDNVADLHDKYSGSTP
The experiment in a line: 20S proteasome inhibition assay, fluorogenic substrate Suc-Leu-Leu-Val-Tyr-AMC.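 For all read-outs here: enzyme and 20 µM substrate incubated 1 h at 37 °C in Tris-HCl buffer pH 7.6, fluorogenic read-out, inhibition calculated against vehicle control.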 The assay is classed as biochemical. Particulars: for proteasome inhibitory activity, SAR statement in words: chymotrypsin-like activity, compared with lead or analogue.

The mark [1] stands for this setting: individual determinations (runs M-1096, M-1098, M-1099, AK or dated), read-out: Chymotrypsin-like Activity IC50.
Setting [2] is: mean of the individual determinations, read-out: Chymotrypsin-like Activity IC50 (μM), mean ± spread (n).
The mark [3] stands for this setting: 30 μM, runs M-1096, M-1098, M-1099.

For `O=C(O)COc1cc(NS(=O)(=O)c2cccs2)c2ccccc2c1O` [YL2-030, 2-(1-hydroxy-4-(thiophene-2-sulfonamido)naphthalen-2-yloxy)acetic acid], the “proteasome inhibitory activity, SAR statement in words” value (from here on “proteasome inhibitory activity”) was “diminished the inhibitory activity”. In addition, under setting [1], the IC50 (as a rule, the point on the concentration scale where inhibition reaches its midpoint) is > 10 µM.

Turning to `O=C(CCSC1=C/C(=N\S(=O)(=O)c2cccs2)c2ccccc2C1=O)NC1CC1` [HL4-078-3, N-cyclopropyl-3-(1-oxo-4-(thiophen-2-ylsulfonylimino)-1,4-dihydronaphthalen-2-ylthio)propanamide], the IC50 by setting is: under setting [1], 5.5 µM and 8.65 µM and > 10 µM (2×); under setting [2], 8.05 µM. On to `CCOC(=O)CSC1=C(SCC(=O)OCC)C(=O)c2ccccc2C1=O` [YG1-017], for which the “Chymotrypsin-like Activity Inhib at 100 μM” value (100 μM) is 57% and 36%. Further, under setting [1], the IC50 is > 30 µM and 48 µM and > 100 µM. `O=C(O)c1cccc(NC2=C/C(=N\S(=O)(=O)c3cccs3)c3ccccc3C2=O)c1` [YG1-174, 3-(1-oxo-4-(thiophen-2-ylsulfonylimino)-1,4-dihydronaphthalen-2-ylamino)-benzoic acid]: under setting [1], the 50% inhibitory concentration (IC50) was > 10 µM. Still for that read-out and setting: in the case of `CNC(=O)CCSC1=C/C(=N\S(=O)(=O)c2cccs2)c2ccccc2C1=O` [HL4-078-2, N-methyl-3-(1-oxo-4-(thiophen-2-ylsulfonylimino)-1,4-dihydronaphthalen-2-ylthio)propanamide] it was 8.1 µM and > 10 µM (2×). Same read-out and setting: in the case of “N-(3-(ethylthio)-4-hydroxynaphthalen-1-yl)thiophene-2-sulfonamide [YG2-087-1]” it was > 10 µM. Turning to `O=C(O)CSc1cc(NS(=O)(=O)c2ccccc2)c2ccccc2c1O` [YG1-117, 2-(1-hydroxy-4-(phenylsulfonamido)naphthalen-2-ylthio)acetic acid], the IC50 under setting [1] is 0.68 µM and 2.71 µM and 2.9 µM and 1.9 µM and 2.2 µM; the IC50 (value quoted in running text / FIG. 11, read-out: IC50 against chymotrypsin-like proteasome activity) amounted to 2.08 µM. For `CCOC(=O)CSC1=C/C(=N\S(=O)(=O)c2cccs2)c2ccccc2C1=O` [YG1-094], the IC50 under setting [1] was 1.6 µM and > 10 µM and 2.8 µM and 3 µM and 1.5 µM and 2.5 µM; the IC50 under setting [2] amounted to 2.28 µM. As to `O=C(CCSc1cc(NS(=O)(=O)c2cccs2)c2ccccc2c1O)NC1CC1` [HL4-100-3, N-cyclopropyl-3-(1-hydroxy-4-(thiophene-2-sulfonamido)naphthalen-2-ylthio)propanamide], the half-maximal inhibitory concentration (IC50) reads like this: under setting [1], 8.6 µM and 6 µM and > 10 µM; under setting [2], 7.3 µM.

As for `CCSc1cc(NS(=O)(=O)c2cccs2)c2ccccc2c1O` [YG2-087-1, N-(3-(ethylthio)-4-hydroxynaphthalen-1-yl)thiophene-2-sulfonamide], the “proteasome inhibitory activity” value is listed as “the inhibitory activity totally lost”. With `COC(=O)CCSc1cc(NS(=O)(=O)c2cccs2)c2ccccc2c1O` [YG1-107], under setting [1], the IC50 is 2.28 µM and 2.26 µM and 6.6 µM and 3.9 µM and 7.1 µM and 7.7 µM. The same measure, in the same setting: in the case of `COC(=O)CCSc1cc(NS(=O)(=O)c2cc(Cl)c(Cl)s2)c2ccccc2c1O` [HL4-098-3, Methyl-3-(4-(4,5-dichlorothiophene-2-sulfonamido)-1-hydroxynaphthalen-2-ylthio)propanoate] it was 0.81 µM and 1.5 µM and 1.52 µM and 0.9 µM; in that of `O=C(O)CCCOc1ccc(NS(=O)(=O)c2cccs2)c2ccccc12` [YG2-094, 4-(4-(thiophene-2-sulfonamido)naphthalen-1-yloxy)butanoic acid], > 10 µM. For `O=S(=O)(Nc1cc(Cl)c(O)c2ccccc12)c1cccs1` [YG1-012, N-(3-chloro-4-hydroxynaphthalen-1-yl)thiophene-2-sulfonamide], under setting [3], the “Chymotrypsin-like Activity Inhibition at 30 μM” value was 41% and 45%; the inhibition at 30 µM came to 33%. Also, the “Chymotrypsin-like Activity Inhib at 100 μM” value (100 μM) came to 97%. For the same compound, the inhibition at 100 µM (100 μM, read-out: Chymotrypsin-like Activity Inhib at 100 μM) is 82%. In addition, under setting [1], the IC50 is > 30 µM and 45 µM and 36 µM. As to `CN(C)C1=C/C(=N\S(=O)(=O)c2cccs2)c2ccccc2C1=O` [YG1-125, N-(3-(dimethylamino)-4-oxonaphthalen-1(4H)-ylidene)thiophene-2-sulfonamide], the IC50 under setting [1] is > 10 µM. Regarding `CCOC(=O)CSC1=C/C(=N\S(=O)(=O)c2ccc(C)cc2)c2ccccc2C1=O` [YG2-014, Ethyl 2-(1-oxo-4-(tosylimino)-1,4-dihydronaphthalen-2-ylthio)acetate], the IC50 reads like this: under setting [1], 4 µM and 4.7 µM and 4.2 µM and > 10 µM; under setting [2], 4.3 µM. Turning to `CNC(=O)CCSc1cc(NS(=O)(=O)c2cccs2)c2ccccc2c1O` [HL4-100-2, 3-(1-hydroxy-4-(thiophene-2-sulfonamido)naphthalen-2-ylthio)-N-methylpropanamide], the IC50 under setting [1] is > 10 µM. Take `O=C1C(N2CCN(c3ccccn3)CC2)=C/C(=N\S(=O)(=O)c2cccs2)c2ccccc21` [YG1-130]: under setting [1], the IC50 was > 10 µM.

As for `Nc1ccc(SCC(=O)O)c2ccccc12` [YG3-005, 2-(4-aminonaphthalen-1-ylthio)acetic acid], the IC50 under setting [1] was > 10 µM. Still for that read-out and setting: in the case of `O=C(O)CSc1cc(NS(=O)(=O)c2ccc(Cl)cc2)c2ccccc2c1O` [YG2-034-1, 2-(4-(4-chlorophenylsulfonamido)-1-hydroxynaphthalen-2-ylthio)acetic acid] it was > 10 µM and 3.44 µM and 4.15 µM. For `CN(C)C(=O)CCSC1=C/C(=N\S(=O)(=O)c2cccs2)c2ccccc2C1=O` [HL4-078-1, N,N-dimethyl-3-(1-oxo-4-(thiophen-2-ylsulfonylimino)-1,4-dihydronaphthalen-2-ylthio)propanamide], the IC50 was 4.7 µM and 9.65 µM and 9.56 µM and 8.5 µM and > 10 µM under setting [1]; 8.1 µM under setting [2]. Consider `O=S(=O)(Nc1cc(Br)c(O)c2ccccc12)c1cccs1` [YG1-034, N-(3-bromo-4-hydroxynaphthalen-1-yl)thiophene-2-sulfonamide], for which the IC50 under setting [1] was > 30 µM and > 100 µM and 28 µM. On the same count and under the same terms, in the case of `CC(C)(C)OC(=O)CC1C(=O)C(=O)c2ccccc2C1=O` (centres unmarked) [YL2-015 4th spot] it was > 10 µM. For `CCOC(=O)CSC1=C/C(=N\S(=O)(=O)Cc2ccc(Cl)cc2)c2ccccc2C1=O` [YG2-019, Ethyl 2-(4-(4-chlorobenzylsulfonylimino)-1-oxo-1,4-dihydronaphthalen-2-ylthio)-acetate], the concentration for half-maximal inhibition (IC50) under setting [1] is 6.9 µM and 7.6 µM and > 10 µM (4×); the IC50 under setting [2] was 7.25 µM.

Regarding `O=S(=O)(Nc1ccc(O)c2ccccc12)c1cccs1` [YG1-004, N-(4-hydroxynaphthalen-1-yl)thiophene-2-sulfonamide], the “proteasome inhibitory activity” value is on record as “loss of the inhibitory activity”. The “Chymotrypsin-like Activity Inhib at 100 μM” value (100 μM) was 44% and 67%. The IC50 under setting [1] was > 30 µM and > 100 µM and 35 µM.

For `O=C(O)CS(=O)(=O)c1cc(NS(=O)(=O)c2cccs2)c2ccccc2c1O` [YG1-134, 2-(1-hydroxy-4-(thiophene-2-sulfonamido)naphthalen-2-ylsulfonyl)acetic acid], the “proteasome inhibitory activity” value is “loss or reduction of the inhibitory activity”. Besides, the IC50 under setting [1] is > 10 µM. For `O=S(=O)(Nc1cc(SCCO)c(O)c2ccccc12)c1cccs1` [YG1-087-2, N-(4-hydroxy-3-(2-hydroxyethylthio)naphthalen-1-yl)thiophene-2-sulfonamide], in that order: “the inhibitory activity totally lost” and > 10 µM. With `O=C1CSc2cc(NS(=O)(=O)c3cccs3)c3ccccc3c2O1` [YG2-120, N-(2-oxo-2,3-dihydronaphtho[1,2-b][1,4]oxathiin-6-yl)thiophene-2-sulfonamide], the IC50 under setting [1] is 1.1 µM and 1.79 µM. Same read-out and setting: in the case of `O=C1C=C(O)C(=O)c2ccccc21` [S.M. of YL2-013, 2-hydroxynaphthalene-1,4-dione] it was > 10 µM.

Consider `O=C1C(Cl)=C/C(=N\S(=O)(=O)c2cccs2)c2ccccc21` [YG2-133-2], for which the half-inhibitory concentration (IC50) under setting [1] is 4.25 µM and 2.75 µM. Same read-out and setting: in the case of `CCOC(=O)CSc1cc(NS(=O)(=O)c2cccs2)c2ccccc2c1O` [YG1-094-2] it was 2.67 µM and 9.65 µM and 9.5 µM. On to `COC(=O)CCSC1=C/C(=N\S(=O)(=O)c2cccs2)c2ccccc2C1=O` [YG1-112], for which the IC50 is, setting by setting: under setting [1], 2.2 µM and 5.9 µM and 6.1 µM and > 10 µM (2×) and 6 µM and 3 µM; under setting [2], 4.64 µM. On to “N-(3-(1-methyl-1H-tetrazol-5-ylthio)-4-oxonaphthalen-1(4H)-ylidene)thiophene-2-sulfonamide [YG1-158-1]”, for which the IC50 was 2.46 µM and 7.24 µM and 7.9 µM and 9.8 µM and > 10 µM and 1.24 µM and 1.81 µM under setting [1]; 5.08 µM under setting [2].

Take `CC(C)(C)OC(=O)COc1ccc(NS(=O)(=O)c2cccs2)c2ccccc12` [YG2-080, tert-butyl 2-(4-(thiophene-2-sulfonamido)naphthalen-1-yloxy)acetate]: under setting [1], the IC50 was > 10 µM.

On to `CN(C)C(=O)CCSc1cc(NS(=O)(=O)c2cccs2)c2ccccc2c1O` [HL4-100-1, 3-(1-hydroxy-4-(thiophene-2-sulfonamido)naphthalen-2-ylthio)-N,N-dimethylpropanamide], for which the IC50 under setting [1] is > 10 µM. The same measure, in the same setting: in the case of `CCOC(=O)CSC1=C/C(=N\S(=O)(=O)c2ccc(-c3ccccc3)cc2)c2ccccc2C1=O` [YG2-011] it was > 10 µM; in that of `CC(C)(C)OC(=O)COc1cc(NS(=O)(=O)c2cccs2)c2ccccc2c1O` [YL2-025, tert-Butyl-2-(1-hydroxy-4-(thiophene-2-sulfonamido)naphthalen-2-yloxy)acetate], > 10 µM. Take `CCOC(=O)CSc1cc(NS(=O)(=O)c2ccc([N+](=O)[O-])cc2)c2ccccc2c1O` [YG1-148F5, Ethyl 2-(1-hydroxy-4-(4-nitrophenylsulfonamido)naphthalen-2-ylthio)acetate]: the “proteasome inhibitory activity” value was “slightly enhanced the activity”. In addition, the IC50 under setting [1] was 0.82 µM and 4.55 µM and 5.36 µM.

For `O=C(O)COc1ccc(NS(=O)(=O)c2cccs2)c2ccccc12` [YG2-083, 2-(4-(thiophene-2-sulfonamido)naphthalen-1-yloxy)acetic acid], the 50% inhibitory concentration (IC50) under setting [1] is > 10 µM.
